Values quoted from earlier work as cited in article PMC9598925, “Synthetic Amphipathic β-Sheet Temporin-Derived Peptide with Dual Antibacterial and Anti-Inflammatory Activities” (Antibiotics, 2022).
Read-outs that look alike come from different tables or passages of the source.

Assays:
S. aureus ATCC 25923 = details: lead peptide, previous works ref 27, 41; cited from earlier work
Description: (§1) Table 2 MICs values of peptide [Nle^1, DLeu^9, DLys^10]TL in comparison with [DLeu^9, DLys^10]TL on selected Gram-positive and Gram-negative strains. | column: MIC Values (μM) / [DLeu^9, DLys^10]TL *

E. coli ATCC 25922 = details: lead peptide, previous works ref 27, 41; cited from earlier work
Description: as §1

[1] = test system: S. epidermidis ATCC 12228; details: lead peptide, previous works ref 27, 41; cited from earlier work
Description: as §1

B. megaterium Bm11 = details: lead peptide, previous works ref 27, 41; cited from earlier work
Description: as §1

A. baumannii ATCC 19606 = details: lead peptide, previous works ref 27, 41; cited from earlier work
Description: as §1

[2] = test system: K. pneumoniae ATCC BAA-1705; details: lead peptide, previous works ref 27, 41; cited from earlier work
Description: as §1

P. aeruginosa ATCC 27853 = details: lead peptide, previous works ref 27, 41; cited from earlier work
Description: as §1

[3] = range of concentrations 1 μM–200 μM; cited from earlier work
Description: The impact of Nle on the aggregation propensity was studied in solution and in presence of large unilamellar vesicles (LUVs) mimicking Gram-positive and Gram-negative membranes. The aggregation in aqueous solution was monitored using Nile Red (NR) as a fluorescent probe. […] The introduction of the Nle residue conferred to peptide [Nle^1, DLeu^9, DLys^10]TL a low propensity to aggregate in aqueous solution as shown ...

HaCaT cells = details: highest concentration of 25 μM; previous work of the authors; cited from earlier work
[4] = 10 μM peptide; LUVs DOPG/CL, ANTS/DPX; cited from earlier work
Experimental: In this study, we evaluated the membranolytic activity of analogue [Nle^1, DLeu^9, DLys^10]TL in presence of LUVs mimicking Gram-positive and Gram-negative membranes by using ANTS/DPX leakage assay. […] Indeed, after the treatment with 10 μM of [Nle^1, DLeu^9, DLys^10]TL, we observed ~60% of LUVs leakage in com ...

[5] = test system: J774A.1 murine macrophage cells; details: highest concentration of 25 μM; previous work of the authors; cited from earlier work
[6] = LUVs mimicking Gram-positive and Gram-negative membranes; cited from earlier work
Description: The molecular conformation of [Nle^1, DLeu^9, DLys^10]TL was investigated by circular dichroism (CD) spectroscopy both in LUVs made of DOPG/CL and DOPG/DOPE/CL (Figure 3, panel A). […] In contrast, the introduction of Nle induced changes in molecular conformation, determining the formation of β-aggregates.

[7] = test system: zymosan-induced peritonitis; details: cited from earlier work
[8] = LUVs DOPG/CL, cited from earlier work
Experimental: LUVs composed of DOPG/CL (58/42 ratio in moles) and DOPG/DOPE/CL ([…] ratio in moles) were used to mimic Gram-positive and Gram-negative cell membranes, respectively. LUVs were titrated with different peptide concentrations of 5, 10, 15, […], 30, and 50 μM. […] In contrast, the peptide [DLeu^9, DLys^10]TL progressively oligomerized in LUVs (DOPG/CL) as described in Bellavita et al.; in fact, it was partially aggr ...

Substance: FVPWFSKFlkRIL [[DLeu^9, DLys^10]TL]
- MIC (S. aureus ATCC 25923): 6.25 µM
- MIC (E. coli ATCC 25922): 12.5 µM
- MIC [1]: 3.12 µM
- MIC (B. megaterium Bm11): 3.12 µM
- MIC (A. baumannii ATCC 19606): 6.25 µM
- MIC [2]: 12.5 µM
- MIC (P. aeruginosa ATCC 27853): 12.5 µM
- aggregation in solution [3]: unable to aggregate in solution
- cytotoxicity on human keratinocytes (HaCaT cells): not cytotoxic
- LUVs leakage [4]: ~ 23%
- cytotoxicity on murine macrophages [5]: not cytotoxic
- molecular conformation (CD) [6]: helical aggregates
- anti-inflammatory activity in vivo [7]: significant anti-inflammatory activity
- level of pro-inflammatory cytokines IL-6, MCP-1 and TNF-α [7]: reduced the level of pro-inflammatory cytokines
- aggregation (ThT) ([8]; 20 μM peptide): ~ 56%
- aggregation (ThT) ([8]; 50 μM peptide): completely aggregated
